Experimental data: patent US20230364089A1, “COMPOUNDS AND COMPOSITIONS FOR THE TREATMENT OR PREVENTION OF PATHOLOGICAL CONDITIONS ASSOCIATED WITH EXCESS FIBRIN DEPOSITION AND/OR THROMBUS FORMATION” (Cereno Scientific AB, priority 2016, published 2023)
Where two headings read alike, the source gives them in different places.

Legend:
[1] = cited from earlier work
[2] = once daily (in healthy volunteers); cited from earlier work
PAI-1 [3] = details: in vivo model in pig (Svennerholm et al., PLoS One 2014); cited from earlier work
PAI-1 [4] = test: Plasma PAI-1 in in vivo model in mouse; details: in vivo model in mouse (unpublished data)
[5] = system: cultured endothelial cells; test: PAI-1 mRNA / production in cultured endothelial cells after VPA treatment; type: cell-based; details: no decrease of PAI-1 mRNA levels, slight but significant increase
PAI-1 [6] = test: Proof-of-concept study 2: plasma PAI-1 before and after VPA in patients with a history of myocardial infarction; type: in vivo, human; details: midmorning; for reduction in circulating plasma PAI-1 levels: 16 male patients with history of myocardial infarction, valproic acid 500 mg (Ergenyl Retard) twice daily for 28 days on top of ordinary prescription, p=0.01
Procedure: (§1) The effects of VPA on PAI-1 were analysed in two different proof-of-concept studies in healthy subjects as well as in patients with manifest atherosclerotic disease. […] PAI-1 plasma levels were measured in the morning at the first day of the study as well as at the end of the treatment period with VPA (see example 2 for details on the PAI-1 analysis).
In the second study, 16 non-smoking white male patients, aged 50-80 years with a history of a myocardial infarction were included. On top of their ordinary prescription (beta-blocker, ACE-inhibitor, statin, aspirin) they were treated with valproic acid 500 mg (Ergenyl Retard, Sanofi), twice daily during 28 days.

PAI-1 [7] = test: Proof-of-concept study 1: plasma PAI-1 before and after VPA in healthy subjects; type: in vivo, human
Procedure: as §1
In the first study, 10 healthy non-smoking white male subjects (with mean BMI of approximately 26), aged 50-70 years were included and treated with valproic acid 500 mg (Ergenyl Retard, Sanofi) twice daily during 14 days.

PAI-1 [8] = test: Example 2 intermediate endpoint study in patients with TIA/minor stroke: plasma PAI-1 and plasma valproic acid
Procedure: An intermediate endpoint proof-of-concept study is performed in patients with TIA/minor stroke investigated before and after treatment with Valproic acid. Valproic acid is administrated as an enteric-coated tablet with delayed absorption.
The study comprises 20 patients with TIA/minor stroke. Patients are investigated before and after oral treatment with 400 mg valproic acid once time daily at 11 pm for 2 weeks. Plasma PAI-1 levels and plasma concentrations of valproic acid is followed daily during the study period at the following time-points: 3 am, 6 am, 10 am, 16 pm, 22 pm PAI-1 levels are measured by commercially available ELISA-kits (Coaliza PAI-1, ChromogenixAB) and the plasma concentration of valproic acid an metabolites thereof is analyzed according to clinical routine at the Sahlgrenska University laboratory, Gothenburg, Sweden.

[9] = Example 3 clinical outcome study in high-risk patients: recurrent atherothrombotic events; type: in vivo, human; details: 400 mg valproic acid once daily at 11 pm, long-term, expected
Procedure: A clinical outcome study is performed in high-risk patients who have experienced a recent major atherothrombotic cardiovascular event (myocardial infarction or TIA/ischemic stroke) to investigate the preventive effect of valproic acid treatment on the risk for recurrent events. The annual risk for a recurrent atherothrombotic event in the investigated population is estimated to approximately 7%. […] The event rate is monitored by Kaplan-Meyer statistics. The primary efficacy endpoint is the composite measure of either mortality, or non-fatal myocardial infarction or ischemic stroke. The study is event-driven to a total of 180 events. […] Thus, the study is expected to confirm the clinical efficacy and feasibility of using valproic acid for secondary prevention of cardiovascular disease.

Cc1[nH]c2ccccc2c1CCNCc1ccc(/C=C/C(=O)NO)cc1 [Panobinostat, (E)-N-hydroxy-3-[4-[[2-(2-methyl-1H-indol-3-yl)ethylamino]methyl]phenyl]prop-2-enamide]
MTD ([1]; every other day): 20 mg every other day

CCN(CC)Cc1ccc2cc(COC(=O)Nc3ccc(C(=O)NO)cc3)ccc2c1.Cl [Givinostat, {6-[(diethylamino)methyl]-naphthalen-2-yl}methyl[4-(hydroxycarbamoyl)phenyl]carbamate]
MTD [2]: 200 mg once daily (in healthy volunteers)

O=C(CCCCCCC(=O)Nc1ccccc1)NO [Vorinostat, N-hydroxy-N′-phenyl-octanediamide]
MTD ([1]; once daily): 400 mg once daily

CCCCc1nc2cc(/C=C/C(=O)NO)ccc2n1CCN(CC)CC [SB939, (2E)-3-{2-butyl-1-[2-(diethylamino)ethyl]-1H-benzimidazol-5-yl}-N-hydroxyacrylamide]
MTD ([1]; once daily): 60 mg once daily

CCCC(CCC)C(=O)O [valproic acid, 2-propylpentanoic acid]
effects on plasma PAI-1 (PAI-1 [3]): did not detect any effects | effects on plasma PAI-1 (PAI-1 [4]): did not detect any effects | increase in PAI-1 production [5]: 30% | reduction in circulating plasma PAI-1 levels (PAI-1 [6]): 45% | reduction in circulating plasma PAI-1 levels (PAI-1 [6]; listed as VPA): about 45% | circulating plasma PAI-1 level after treatment (PAI-1 [6]; patients with history of myocardial infarction, valproic acid 500 mg twice daily for 28 days, 19.6 ng/ml before treatment): 11 ng/mL | reduction in circulating plasma PAI-1 levels (PAI-1 [7]; 10 healthy men aged 50-70, valproic acid 500 mg (Ergenyl Retard) twice daily for 14 days, mid-morning vs before treatment, p<0.05): more than 50% | circulating plasma PAI-1 level after treatment (PAI-1 [7]; healthy men, valproic acid 500 mg twice daily for 14 days, mid-morning, 22.2 ng/ml before treatment): 10.8 ng/mL | time of peak plasma concentration of valproic acid (PAI-1 [8]; 400 mg valproic acid enteric-coated tablet with delayed absorption, oral once daily at 11 pm for 2 weeks): between 3 am and 6 am | lowering of plasma PAI-1 levels after the treatment (PAI-1 [8]; 400 mg valproic acid oral once daily at 11 pm for 2 weeks): approximately 30% | reduction of risk for recurrent atherothrombotic event ([9]; in addition to conventional therapy): approximately 30% | annual absolute event rate ([9]; approximately 7% estimated without treatment): approximately 5%

O=C(/C=C/c1cccc(S(=O)(=O)Nc2ccccc2)c1)NO [Belinostat, (2E)-3-[3-(anilinosulfonyl)phenyl]-N-hydroxy-acrylamide]
MTD ([1]; bidaily): 1000 mg bidaily
